From ChEMBL document CHEMBL5338724, “METTL3 from Target Validation to the First Small-Molecule Inhibitors: A Medicinal Chemistry Journey” (J Med Chem, 2023)
pEC50, pIC50, pKd: −log10 of the molar value. Blank lines part the entries; values can stand above or below the molecule they belong to.

How the values were obtained:
[1] = target: T1, METTL3/METTL14 (Homo sapiens, UniProt Q86U44); assay: Inhibition of METTL3/METTL14 (unknown origin) using biotinylated RNA (UCUGGACUAAA-biotin) and 3H-SAM as substrate preincubated for 5 mins followed by substrate addition and measured after 30 mins by scintillation counter analysis; assay type: protein-complex assay
[2] = system: MOLM-13; assay: Antiproliferative activity against human MOLM-13 cells assessed as inhibition of cell proliferation incubated for 96 hrs by Cell Titer-Glo reagent assay; assay type: functional, cell-based; conditions: MOLM-13, 96 h
[3] = target: T2, N6-adenosine-methyltransferase catalytic subunit (Homo sapiens, UniProt Q86U44); assay: Inhibition of METTL3 in human MOLM-13 cells assessed as decrease in cellular m6A mRNA level incubated for 24 hrs by NanoDrop spectrophotometer based LC-MS/MS analysis; assay type: cell-based
[4] = target: T1, METTL3/METTL14; assay: Inhibition of full-length His-tagged METTL3/full length FLAG-tagged METTL14 (unknown origin) expressed in baculovirus expression system using synthetic RNA 5'P-uacacucgaucuggacuaaagcugcuc-3' and SAM as substrate preincubated for 10 mins followed by substrate addition and measured after 60 mins by RF/MS analysis
[5] = system: Kasumi 1; assay: Antiproliferative activity against human Kasumi 1 cells assessed as inhibition of cell proliferation incubated for 120 hrs by CellTiter-Glo assay; assay type: functional, cell-based; conditions: Kasumi 1, 120 h
[6] = system: Caov-3 cell line; assay: Antiproliferative activity against human Caov-3 cell line assessed as inhibition of cell proliferation incubated for 120 hrs by CellTiter-Glo assay; assay type: functional, cell-based; conditions: Caov-3, 120 h
[7] = target: T1, METTL3/METTL14; assay: Inhibition of METTL3/METTL14 (unknown origin); assay type: protein-complex assay
[8] = system: MOLM-13; assay: Antiproliferative activity against human MOLM-13 cells assessed as decrease cell proliferation; assay type: functional, cell-based
[9] = system: MOLM-13; assay: Antiproliferative activity against human MOLM-13 cells assessed as inhibition of cell proliferation incubated for 48 hrs by Cell Titer-Glo reagent assay; assay type: functional, cell-based; conditions: MOLM-13, 48 h
[10] = system: MOLM-13; assay: Antiproliferative activity against human MOLM-13 cells assessed as inhibition of cell proliferation and measured after 7 days by CellTiter-Glo assay; assay type: functional, cell-based; conditions: MOLM-13, 168 h
[11] = system: Caov-3 cell line; assay: Antiproliferative activity against human Caov-3 cell line assessed as inhibition of cell proliferation and measured after 7 days by CellTiter-Glo assay; assay type: functional, cell-based; conditions: Caov-3, 168 h
[12] = target: T2, N6-adenosine-methyltransferase catalytic subunit
[13] = target: T1, METTL3/METTL14; assay: Inhibition of METTL3/METTL14 (unknown origin) using RNA 5'-GGACUGGACUGGACU-3' as substrate incubated for 2 hrs by LC-MS/MS analysis; assay type: protein-complex assay
[14] = target: METTL3/METTL14 (Homo sapiens) (UniProt Q86U44+Q9HCE5); assay: Inhibition of METTL3/METTL14 (unknown origin) at 60 uM relative to control; assay type: protein-complex assay
[15] = Selectivity ratio of IC50 for inhibition of METTL3/METTL14 (unknown origin) to IC50 for inhibition of FLT3 (unknown origin)
[16] = Selectivity ratio of IC50 for inhibition of METTL3/METTL14 (unknown origin) to IC50 for inhibition of PRMT5/MEP50 (unknown origin)
[17] = target: T1, METTL3/METTL14; assay: Competive inhibition of full length human METTL3/METTL14 expressed in Sf9 cells using single strand RNA 5'-AAGAACCGGACUAAGCU-3' and SAM as substrate incubated for 40 mins by HTRF assay
[18] = system: MOLM-14; assay: Antiproliferative activity against human MOLM-14 cells assessed as cell growth inhibition; assay type: functional
[19] = system: HL-60; assay: Antiproliferative activity against human HL-60 cells assessed as cell growth inhibition; assay type: functional
[20] = system: MOLM-13; assay: Antiproliferative activity against human MOLM-13 cells assessed as cell growth inhibition; assay type: functional
[21] = target: T1, METTL3/METTL14
[22] = system: THP-1; assay: Antiproliferative activity against human THP-1 cells assessed as cell growth inhibition; assay type: functional
[23] = target: Histone-lysine N-methyltransferase 2B (Homo sapiens) (UniProt Q9UMN6); assay: Inhibition of MLL4 (unknown origin) at 10 uM relative to control
[24] = target: Histone-lysine N-methyltransferase PRDM9 (Homo sapiens) (UniProt Q9NQV7); assay: Inhibition of PRDM9 (unknown origin) at 10 uM relative to control
[25] = target: T1, METTL3/METTL14; assay: Inhibition of METTL3/METTL14 (unknown origin) by bioluminescence assay; assay type: protein-complex assay
[26] = system: Kasumi 1; assay: cells; conditions: Homo sapiens, Kasumi 1, 168 h
[27] = system: OCI-AML2; assay: cells; conditions: Homo sapiens, OCI-AML2, 168 h
[28] = system: HL-60; assay: cells; conditions: Homo sapiens, HL-60, 168 h
[29] = system: OCI-AML-3; assay: cells; conditions: Homo sapiens, OCI-AML-3, 168 h
[30] = system: EOL1; assay: cells; conditions: Homo sapiens, EOL1, 168 h
[31] = system: NOMO-1; assay: cells; conditions: Homo sapiens, NOMO-1, 168 h
[32] = system: Huh-7; assay: cells; conditions: Homo sapiens, Huh-7, 72 h
[33] = system: MIA PaCa-2; assay: cells; conditions: Homo sapiens, MIA PaCa-2, 72 h

Compound: Nc1ncnc2c1c(Cl)cn2[C@@H]1C[C@H](c2ccc3cc(CNCC45CC(F)(C4)C5)[nH]c3c2)[C@@H](O)[C@H]1O
pIC50 [5]: 6.02
pIC50 [6]: 6.60

Compound: Nc1ncnc2c1c(-n1cccn1)cn2[C@@H]1O[C@H](COc2ccc3ccc(N4CCC4)nc3c2)[C@@H](O)[C@@H]1F
pIC50 [1]: > 8.00
pIC50 [2]: > 5.00
pIC50 [9]: > 5.00

Compound: Cn1ccc(-c2cn([C@@H]3O[C@H](COc4ccc5ccc(N6CCC6)nc5c4)[C@@H](O)[C@@H]3F)c3ncnc(N)c23)n1
pIC50 [1]: > 8.00
pIC50 [2]: > 5.00
pIC50 [3]: > 6.00
pIC50 [9]: > 5.00

Compound: O=C(O)[C@H]1O[C@@H](Oc2cc3oc(-c4ccc(O)cc4)cc(=O)c3c(O)c2O)[C@H](O)[C@@H](O)[C@@H]1O [SCUTELLARIN]
pIC50 [13]: 4.72

Compound: Cn1ccc(-c2cn([C@@H]3O[C@H](COc4ccc5ccc(NC6CCC6)nc5c4)[C@@H](O)[C@@H]3F)c3ncnc(N)c23)n1
pIC50 [1]: > 8.00
pIC50 [2]: > 5.00
pIC50 [3]: > 6.00
pIC50 [9]: > 5.00

Compound: COc1cc(-c2cn(Cc3cn4cc(CNCC5CCC5)ccc4n3)nn2)c2cncn2c1
pIC50 [5]: 6.50
pIC50 [6]: 6.99

Compound: Cc1coc(-c2cn([C@@H]3O[C@H](COc4ccc5ccc(N6CCC6)nc5c4)[C@@H](O)[C@@H]3F)c3ncnc(N)c23)n1
pIC50 [1]: > 8.00
pIC50 [2]: > 5.00
pIC50 [9]: > 5.00

Compound: Nc1ncnc2c1c(Br)cn2[C@@H]1C[C@H](c2ccc3cc(CN4CCC5(CCC5)C4)[nH]c3c2)[C@@H](O)[C@H]1O (single isomer, unassigned)
pIC50 [5]: 6.02
pIC50 [6]: 6.60

Compound: O=C(O)c1ccccc1OCCc1cn(-c2ccc(-c3ccc(Cl)cc3)cc2)c2ccc(-c3ccc(F)cc3)cc12
pIC50 [7]: 5.50
pEC50 [8]: 4.57

Compound: O=C(O)c1ccccc1OCCc1cn(C(c2ccccc2)c2ccccc2)c2ccc(-c3ccc(F)cc3)cc12
pIC50 [7]: 5.22

Compound: Cn1ccc(-c2cn([C@@H]3O[C@H](C(=O)Nc4ccc5ccc(N6CCC6)nc5c4)[C@@H](O)[C@@H]3F)c3ncnc(N)c23)n1
pIC50 [1]: > 8.00
Ratio IC50 [15]: > 100
Ratio IC50 [16]: > 100

Compound: Nc1ncnc2c1ncn2C[C@H]1OC[C@@H](O)[C@@H](O)[C@H]1O
pIC50 [17]: < 3.60

Compound: COc1cc(-c2cn(Cc3cn4cc(CNCC56CC(F)(C5)C6)ccc4n3)nn2)c2cncn2c1
pIC50 [5]: 5.94
pIC50 [6]: 6.52

Compound: Nc1ncnc2c1c(-n1cccn1)cn2[C@H]1C[C@H](O)[C@@H](COc2ccc3ccc(N4CCC4)nc3c2)O1
pIC50 [1]: > 8.00
pIC50 [2]: > 5.00
pIC50 [3]: > 6.00
pIC50 [9]: > 5.00

Compound: O=c1cc(-c2ccc(O)c(O)c2)oc2cc(O)cc(O)c12 [LUTEOLIN]
pIC50 [13]: 5.21

Compound: Nc1ncnc2c1ccn2[C@@H]1C[C@H](c2ccc3cc(CN4CCC5(CCC5)C4)[nH]c3c2)[C@@H](O)[C@H]1O (single isomer, unassigned)
pIC50 [5]: 6.02
pIC50 [6]: 6.60

Compound: O=C(O)c1ccccc1OCCc1cn(-c2ccc(-c3c(Cl)cccc3Cl)cc2)c2ccc(-c3ccc(F)cc3)cc12
GI50 [18]: 13.1 µM
GI50 [19]: 15.5 µM
pEC50 [8]: 4.84
GI50 [20]: 14.6 µM
pIC50 [21]: 5.31
GI50 [22]: 21.6 µM

Compound: Cn1ccc(-c2cn([C@H]3C[C@H](O)[C@@H](COc4ccc5ccc(N6CCC6)nc5c4)O3)c3ncnc(N)c23)n1
pIC50 [1]: > 8.00
pIC50 [2]: > 5.00
pIC50 [3]: > 6.00
pIC50 [9]: > 5.00

Compound: O=c1c(O)c(-c2ccc(O)c(O)c2)oc2cc(O)cc(O)c12 [QUERCETIN]
pIC50 [32]: 4.00
pIC50 [33]: 4.13
pIC50 [13]: 5.56

Compound: COc1cc(-c2cn(Cc3cn4cc(CNCC56CC(C5)C6)ccc4n3)nn2)c2cncn2c1
pIC50 [5]: 6.38
pIC50 [6]: 6.96

Continued, in another order:

pIC50 [1]: > 8.00
pIC50 [2]: > 5.00
pIC50 [3]: > 6.00
Compound: CCc1cc(N(C)CCOC)c2ccc(CCc3cncc(-n4cc(-c5ccn(C)n5)c5c(N)ncnc54)c3)cc2n1

pIC50 [4]: 8.36
Compound: Clc1cc(-c2cn(Cc3cn4cc(CNCC5CCC5)ccc4n3)nn2)c2cn[nH]c2c1

pIC50 [4]: > 8.22
Compound: Nc1ncnc2c1c(Br)cn2[C@@H]1C[C@H](c2ccc3cc(CNCC45CC(F)(C4)C5)[nH]c3c2)[C@@H](O)[C@H]1O
pIC50 [5]: 6.02
pIC50 [6]: 6.60

pIC50 [1]: > 8.00
pIC50 [2]: > 5.00
pIC50 [3]: > 6.00
Compound: CCc1cc(NCCOC)c2ccc(CCc3cncc(-n4cc(-c5ccn(C)n5)c5c(N)ncnc54)c3)cc2n1

pIC50 [7]: 5.56
pEC50 [8]: 4.52
Compound: O=C(O)c1ccccc1OCCc1cn(-c2cccc(-c3ccccc3)c2)c2ccc(-c3ccc(F)cc3)cc12

pIC50 [1]: > 8.00
pIC50 [3]: > 6.00
pIC50 [9]: > 6.00
Compound: CNc1ccc2ccc(CCc3cncc(-n4cc(-c5ccn(C)n5)c5c(N)ncnc54)c3)cc2n1

pIC50 [10]: 6.18
Compound: O=C(NCc1cn2cc(CNCC34CC(F)(C3)C4)ccc2n1)c1cc(=O)n2ccccc2n1
pIC50 [11]: 6.61

pIC50 [4]: 8.44
Compound: COc1cc(-c2cn(Cc3cn4cc(CNCC5CCC5)ccc4n3)nn2)c2cn[nH]c2c1

pKd [12]: 8.32
Compound: COc1cc2c(cc1Cc1cccc(Cl)c1F)c(=O)c(C(=O)O)cn2[C@H](CO)C(C)C

pIC50 [10]: 5.93
Compound: COc1ccc2[nH]ncc2c1-c1cn(Cc2cn3cc(CNCC4CCC4)ccc3n2)nn1
pIC50 [11]: 6.25

inhibition [14]: 23.3%
Compound: CC1=NN(c2ccc(C)c(C)c2)C(=O)/C1=N\Nc1cccc(-c2ccccc2)c1O

inhibition [14]: 23.7%
Compound: COC(=O)c1cccc(-c2cccc(N/N=C3\C(=O)N(c4ccc(C)c(C)c4)N=C3C)c2O)c1

pIC50 [7]: 4.89
Compound: O=C(O)c1ccccc1OCCc1cn(C(c2ccccc2)c2ccccc2)c2ccc(Cl)cc12

pIC50 [7]: 4.76
Compound: Cc1c(CCOc2ccc(C(=O)O)cc2)c2cc(Cl)ccc2n1C(c1ccccc1)c1ccccc1

pIC50 [7]: 5.06
Compound: O=C(O)c1ccccc1OCCc1cn(C(c2ccccc2)c2ccccc2)c2ccc(-c3ccccc3)cc12

inhibition [23]: 29%
inhibition [24]: 30%
pIC50 [25]: 5.44
Compound: CC1=NN(c2ccc(C)c(C)c2)C(=O)/C1=N\Nc1cccc(-c2cccc(C(=O)O)c2)c1O [ELTROMBOPAG]

pIC50 [1]: > 8.00
pIC50 [2]: > 5.00
pIC50 [3]: > 6.00
pIC50 [9]: > 5.00
Compound: CNc1ccc2ccc(OC[C@H]3O[C@@H](n4cc([C@@H]5CCCO5)c5c(N)ncnc54)[C@@H](F)[C@@H]3O)cc2n1

pIC50 [10]: 5.98
pIC50 [26]: 6.15
pIC50 [27]: 5.75
pIC50 [28]: 4.99
pIC50 [29]: 5.49
pIC50 [30]: 5.71
pIC50 [31]: 6.22
Compound: O=C(NCc1cn2cc(CNCC3CCCCC3)ccc2n1)c1cc(=O)n2ccccc2n1

pIC50 [1]: > 8.00
pIC50 [2]: > 5.00
pIC50 [3]: > 6.00
Compound: CNc1ccc2ccc(OCc3cncc(-n4cc([C@@H]5CCCO5)c5c(N)ncnc54)c3)cc2n1

pIC50 [17]: < 3.60
Compound: Nc1ncnc2c1ncn2[C@@H]1O[C@H](C(=O)NCC2CCNCC2)[C@@H](O)[C@H]1O (single isomer, unassigned)

pIC50 [7]: 5.53
pEC50 [8]: 4.49
Compound: O=C(O)c1ccccc1OCCc1cn(-c2ccc(-c3ccccc3)cc2)c2ccc(-c3ccc(F)cc3)cc12
